Measured values as given in patent publication EP4803513A1, “SUBSTITUTED QUINAZOLINE COMPOUND, PREPARATION METHOD THEREFOR, PHARMACEUTICAL COMBINATION THEREOF, AND USE THEREOF” (Hongyun Biotech Co., Ltd., priority 2023, dated 2025).

How the values were obtained:
[1] = system: BRK-BaF3 cells; assay: Cell antiproliferative activity assay (CCK-8), BRK-BaF3; assay type: cell-based; conditions: 72 h, CCK-8, 3 days incubation
Experimental: (§1) The activity of compounds against BRK kinase can be evaluated by their inhibition of the growth of the BRK kinase-stably transfected BaF3 cell line (BRK-BaF3) and wild-type BaF3 cells (WT-BaF3). […] The larger the ratio of the half-maximal growth inhibitory concentration (IC50) of a compound between WT-BaF3 and BRK-BaF3 cells, the better the selectivity of the compound.
(§2) BRK-BaF3, WT-BaF3, WEHI cell line, and breast cancer cell line T47D were cultured using RPMI 1640 Basal medium or DMEM (Dulbecco's Modified Eagle Medium) (Shanghai Peiyuan Biotechnology, L220KJ), supplemented with 10% FBS (Gibco, REF 10099-141C) and 1% P/S (Shanghai Peiyuan Biotechnology, S110JV), in an incubator (Thermo 3020) at 37°C with 5% CO2. Cell viability was above 95%. Cells were passaged at a 3:1 ratio every 3-4 days. For WT-BaF3 cells, WEHI cells were first cultured, and their culture supernatant was filtered through a 0.22 µm filter. This supernatant was added at 10% to the regular culture medium to supplement IL-3 required for WT-BaF3 cell proliferation, which served as the culture medium for WT-BaF3. For testing, cells were first collected and counted, then prepared into a cell suspension at 100,000 cells/mL and plated at 100 µL per well. Drug concentrations started from 10 µM and were serially diluted 3:1. After incubation for 3 days, 20 µL of CCK-8 detection reagent (Targetmol C005) was added to each well. After incubation for 2-4 hours, OD450 was measured using a microplate reader (Varioskan LUX, Thermo Scientific). After subtracting the blank background, the curve was fitted and the IC50 was calculated using XLfit software.

[2] = system: WT-BaF3 cells; assay: Cell antiproliferative activity assay (CCK-8), WT-BaF3 (broad-spectrum cytotoxicity); assay type: cell-based; conditions: 72 h; WT-BaF3 cells (IL-3 supplemented), CCK-8, 3 days incubation
Experimental: as §1, §2

SMILES | IC50 [1] | IC50 [2]
Cc1nn(CCO)cc1Nc1ncc2cc(-c3cc(F)cnc3C)cc(C3CC3)c2n1 [I-74] | ≤ 0.02 µM | 0.5 to 2.5 µM
Cc1nn(CCO)cc1Nc1ncc2cc(-c3cccnc3C#N)cc(C(C)C)c2n1 [I-26] | ≤ 0.02 µM | > 2.5 µM
Cc1nccnc1-c1cc(C2CC2)c2nc(Nc3cnn(CCO)c3)ncc2c1 [I-107] | ≤ 0.02 µM | 0.5 to 2.5 µM
Cc1nn(CCO)cc1Nc1ncc2cc(-c3ccncc3)cc(C(C)C)c2n1 [I-10] | 0.02 to 0.1 µM | 0.5 to 2.5 µM
Cc1ncnc(C)c1-c1cc(C(C)C)c2nc(Nc3ccc(P(C)(C)=O)nc3)ncc2c1 [II-42] | 0.02 to 0.1 µM | > 2.5 µM
COCCn1cc(Nc2ncc3cc(-c4c(C)ncnc4C)cc(C(C)C)c3n2)c(C)n1 [III-94] | ≤ 0.02 µM | > 2.5 µM
Cc1nn(CCO)cc1Nc1ncc2cc(-c3c(C)ncnc3N)cc(C(C)C)c2n1 [I-129] | 0.02 to 0.1 µM | > 2.5 µM
Cc1nn(CCO)cc1Nc1ncc2cc(-c3cncnc3N)cc(C(C)C)c2n1 [I-124] | 0.02 to 0.1 µM | > 2.5 µM
COc1nc(P(C)(C)=O)ccc1Nc1ncc2cc(-c3nccnc3C)cc(C(C)C)c2n1 [II-2] | ≤ 0.02 µM | > 2.5 µM
Cc1c[nH]c(=O)cc1-c1cc(C(C)C)c2nc(Nc3cnn(C4COC4)c3C)ncc2c1 [III-41] | ≤ 0.02 µM | > 2.5 µM
Cc1nccnc1-c1cc(C(C)C)c2nc(Nc3ccc(P(C)(C)=O)cn3)ncc2c1 [II-8] | 0.02 to 0.1 µM | > 2.5 µM
Cc1nn(CC(N)=O)cc1Nc1ncc2cc(-c3cncnc3C)cc(C(C)C)c2n1 [III-96] | 0.02 to 0.1 µM | > 2.5 µM
Cc1c[nH]c(=O)cc1-c1cc(C(C)C)c2nc(Nc3cn(C4CCCN(C)CC4)nc3C)ncc2c1 (centres unmarked) [III-35] | ≤ 0.02 µM | 
Cc1c[nH]c(=O)cc1-c1cc(C(C)C)c2nc(Nc3cn(C4CCN(C(C)C)C4)nc3C)ncc2c1 (centres unmarked) [III-39] | ≤ 0.02 µM | 
Cc1c(Nc2ncc3cc(-c4cnccc4F)cc(C(C)C)c3n2)cnn1CCO [I-58] | 0.02 to 0.1 µM | 
Cc1c[nH]c(=O)cc1-c1cc(C2CC2)c2nc(Nc3cn(C4COC4)nc3C)ncc2c1 [III-82] | ≤ 0.02 µM | 
Cc1c(F)cncc1-c1cc(C(C)C)c2nc(Nc3cnn(CCO)c3C)ncc2c1 [I-67] | ≤ 0.02 µM | 
COC[C@@H](C)n1cc(Nc2ncc3cc(-c4cc(=O)[nH]cc4C)cc(C(C)C)c3n2)c(C)n1 [III-45] | ≤ 0.02 µM | 

SMILES | IC50 [1] | IC50 [2]
Cc1c[nH]c(=O)cc1-c1cc(C(C)C)c2nc(Nc3cn(CCO)nc3C)ncc2c1 [I-172] | ≤ 0.02 µM | 
Cc1ccnc(C)c1-c1cc(C(C)C)c2nc(Nc3cnn(CCO)c3C)ncc2c1 [I-71] | ≤ 0.02 µM | 
Cc1ccncc1-c1cc(C(C)C)c2nc(Nc3cn(C4CCN(C)CC4)nc3C)ncc2c1 [III-129] | ≤ 0.02 µM | 
Cc1c[nH]c(=O)cc1-c1cc(C(C)C)c2nc(Nc3cn(C(C)(C)CO)nc3C)ncc2c1 [I-173] | 0.02 to 0.1 µM | 
Cc1c[nH]c(=O)cc1-c1cc(C2CC2)c2nc(Nc3cn(C)nc3C)ncc2c1 [III-80] | ≤ 0.02 µM | 
Cc1c[nH]c(=O)cc1-c1cc(C(C)C)c2nc(Nc3cn(C4CCN(C)CC4)nc3C(F)(F)F)ncc2c1 [III-27] | ≤ 0.02 µM | 
Cc1c[nH]c(=O)cc1-c1cc(C(C)C)c2nc(Nc3cn(C4CCN(C)CC4)nc3C)ncc2c1 [III-13] | ≤ 0.02 µM | 
Cc1ccc(F)cc1-c1cc(C(C)C)c2nc(Nc3cnn(CCO)c3C)ncc2c1 [I-171] | ≤ 0.02 µM | 
Cc1ncnc(C)c1-c1cc(C(C)C)c2nc(Nc3cnn(CCO)c3C)ncc2c1 [I-145] | 0.02 to 0.1 µM | 
CCc1cc(-c2cc(=O)[nH]cc2C)cc2cnc(Nc3cn(C)nc3C)nc12 [III-84] | 0.02 to 0.1 µM | 
Cc1ccc2[nH]ncc2c1-c1cc(C(C)C)c2nc(Nc3cn(CCO)nc3C)ncc2c1 [I-182] | ≤ 0.02 µM | 
Cc1nn(CCO)cc1Nc1ncc2cc(-c3cc(F)ccc3F)cc(C(C)C)c2n1 [I-159] | ≤ 0.02 µM | 
CCc1ncccc1-c1cc(C(C)C)c2nc(Nc3cn(CCO)nc3C)ncc2c1 [I-24] | ≤ 0.02 µM | 
Cc1nn(CCO)cc1Nc1ncc2cc(-c3ccnc(F)c3F)cc(C(C)C)c2n1 [I-15] | 0.02 to 0.1 µM | 
Cc1c[nH]c(=O)cc1-c1cc(C(C)C)c2nc(Nc3cnn(CCN4CCOC[C@H]4C)c3C)ncc2c1 [III-62] | ≤ 0.02 µM | 
Cc1c[nH]c(=O)cc1-c1cc(C(C)C)c2nc(Nc3cn(CCN(C)CC(C)(C)O)nc3C)ncc2c1 [III-56] | ≤ 0.02 µM | 
Cc1nccnc1-c1cc(C(C)C)c2nc(Nc3cnn(C)c3C)ncc2c1 [III-100] | ≤ 0.02 µM | 

The next lines start with results.

IC50 [1] | SMILES | IC50 [2]
≤ 0.02 µM | Cc1nn(CCN)cc1Nc1ncc2cc(-c3nccnc3C)cc(C(C)C)c2n1 [III-108] | 0.1 to 0.5 µM
0.02 to 0.1 µM | Cc1nn(CCO)cc1Nc1ncc2cc(-c3cncnc3)cc(C(C)C)c2n1 [I-123] | 0.5 to 2.5 µM
≤ 0.02 µM | Cc1nn(CCO)cc1Nc1ncc2cc(-c3cccnc3)cc(C3CC3)c2n1 [I-72] | 0.1 to 0.5 µM
0.02 to 0.1 µM | Cc1ncccc1-c1cc(C(C)C)c2nc(Nc3cnn(CCO)c3C)ncc2c1 [I-66] | 0.5 to 2.5 µM
≤ 0.02 µM | COc1ncncc1-c1cc(C(F)(F)F)c2nc(Nc3cn(CCO)nc3C)ncc2c1 [I-153] | > 2.5 µM
≤ 0.02 µM | Cc1nccnc1-c1cc(C(C)C)c2nc(Nc3ccc(P(C)(C)=O)c(Cl)c3F)ncc2c1 [II-17] | 0.5 to 2.5 µM
0.02 to 0.1 µM | Cc1nn(CCO)cc1Nc1ncc2cc(-c3cccc4c3OCO4)cc(C3CC3)c2n1 [I-166] | 
≤ 0.02 µM | Cc1c[nH]c(=O)cc1-c1cc(C(C)C)c2nc(Nc3cnn(CC(C)(C)O)c3C)ncc2c1 [I-180] | 
≤ 0.02 µM | Cc1c[nH]c(=O)cc1-c1cc(C(C)C)c2nc(Nc3cn(CC(C)(C)O)nc3C)ncc2c1 [I-175] | 
0.02 to 0.1 µM | Cc1nn(CCO)cc1Nc1ncc2cc(-c3cccnc3C(F)F)cc(C(C)C)c2n1 [I-23] | 
0.02 to 0.1 µM | Cc1ncc(F)cc1-c1cc(C(C)C)c2nc(Nc3cnn(CCO)c3C)ncc2c1 [I-69] | 
0.02 to 0.1 µM | COCCOCCn1cc(Nc2ncc3cc(-c4cc(=O)[nH]cc4C)cc(C(C)C)c3n2)c(C)n1 [III-44] | 
≤ 0.02 µM | COc1nn(C2CCN(C)CC2)cc1Nc1ncc2cc(-c3cc(=O)[nH]cc3C)cc(C(C)C)c2n1 [III-31] | 
≤ 0.02 µM | Cc1nn(CCO)cc1Nc1ncc2cc(-c3cccc(F)c3F)cc(C(C)C)c2n1 [I-156] | 
0.02 to 0.1 µM | COc1cncc(-c2cc(C(C)C)c3nc(Nc4cn(CCO)nc4C)ncc3c2)n1 [I-91] | 
≤ 0.02 µM | Cc1c[nH]c(=O)cc1-c1cc(C(C)C)c2nc(Nc3cn(C)nc3Cl)ncc2c1 [III-5] | 
≤ 0.02 µM | CCc1c(Nc2ncc3cc(-c4cc(=O)[nH]cc4C)cc(C(C)C)c3n2)cnn1C1CCN(C)CC1 [III-30] | 
≤ 0.02 µM | Cc1c[nH]c(=O)cc1-c1cc(C2CC2)c2nc(Nc3cnn(C)c3C)ncc2c1 [III-81] | 
0.02 to 0.1 µM | Cc1cc2cn[nH]c2cc1-c1cc(C(C)C)c2nc(Nc3cn(CCO)nc3C)ncc2c1 [I-185] | 
≤ 0.02 µM | Cc1c[nH]c(=O)cc1-c1cc(C(C)C)c2nc(Nc3cnn([C@@H]4C[C@H]5CC[C@@H](C4)N5C)c3C)ncc2c1 [III-26] | 
0.02 to 0.1 µM | Cc1cnc(F)cc1-c1cc(C(C)C)c2nc(Nc3cnn(CCO)c3C)ncc2c1 [I-19] | 
≤ 0.02 µM | Cc1nn(CCO)cc1Nc1ncc2cc(-c3cccc4c3OCO4)cc(C(C)C)c2n1 [I-163] | 
≤ 0.02 µM | Cc1nn(CCO)cc1Nc1ncc2cc(-c3cncc(Br)c3Cl)cc(C(C)C)c2n1 [I-37] | 
≤ 0.02 µM | Cc1c[nH]c(=O)cc1-c1cc(C(C)C)c2nc(Nc3cnn(C(F)F)c3C)ncc2c1 [III-8] | 
